Blank lines part the entries; values can stand above or below the compound they belong to.
Experiments:
[1] = system: MDA-435 cells; test: Inhibition of proliferation of MDA-435 cells; assay type: cell-based; conditions: MDA435, NE = no effect at highest concentration of drug tested, read-out: prolif: IC50 for inhibition of proliferation, MDA-435
[2] = system: Jurkat cells; test: Inhibition of proliferation of Jurkat cells; assay type: cell-based, human
Experimental: (§1) Cancer cell lines were obtained from the American Type Culture Collection (Manassas, Va.). Cell lines were maintained in RPMI1640 supplemented with glutamine and 5% fetal bovine serum containing SerXtend (Irvine Scientific) when appropriate insulin, as directed by the ATCC. The fetal bovine serum used for culture was heat-inactivated by maintaining the serum at 56° C. for 1 h. Cell lines used were a T celleukemia (Jurkat), prostate cancer (PC3, DU145, LNCAP), breast cancer (MDA468, MDA361, MCF7), pancreatic cancer (MIA PaCa2), liver cancer (Hep G2), lung cancer (A549, NCl H460), colon cancer (HT29, HCT 116), and ovarian cancer (SK-OV-3).
(§2) LNCaP cells at 2.5×10^4 cells/well or PC-3 cells at 5×10^4 cells/well, both in a final volume of […], were plated in triplicate in standard flat-bottomed 96-well tissue culture plates in the presence of drug or vehicle (DMSO). Unless otherwise indicated, cells were grown for 48 h at 37° C. in a CO2 incubator. Relative cell growth was determined with the CellTiter 96 aqueous cell proliferation assay (Promega, Madison, Wis.) as described by the manufacturer using an automated plate reader. Results were calculated in a blinded fashion and are the means of triplicate determinations.

[3] = system: MDA-231 cells; test: Inhibition of calcium entry into MDA-231 cells; assay type: cell-based; conditions: Homo sapiens, MDA-MB-231, NE = no effect at highest concentration of drug tested, read-out: Ca2+: IC50 for inhibition of calcium entry, MDA-231
Experimental: (§3) Cells were incubated in growth media containing 1 uM of the acetoxy-methyl ester of the Ca2+-sensitive fluorescent dye indo-1 (indo-1/AM; Molecular Probes, Eugene, Oreg.) for 1 h at 37° C. Cells were washed three times in buffer A [10 mM HEPES (pH 7.4), 1 mM MgCl2, 3 mM KCl, 1 mM CaCl2, 140 mM NaCl, 0.1% glucose, and 1% fetal bovine serum] and suspended to a final concentration of 10^6 cells/ml. Before stimulation, cells were warmed to 37° C. Changes in [Ca2+]i were monitored in an SLM 8100C spectrofluorimeter (SLM/Aminco; Urbana, Ill.) using previously published methods (Densmore, J. J., Haverstick, D. M., Szabo, G., and Gray, L. S. 1996. A voltage operable current is involved in activation-induced Ca^2+ entry in human lymphocytes whereas ICRAC has no apparent role. Am. J. Physiol. 271:C1494-C1503; Haverstick, D. M., Densmore, J. J., and Gray, L. S. 1998. Calmodulin regulation of Ca^2+ entry in Jurkat T cells. Cell Calcium 23:361-368).

[4] = system: MDA-361 cells; test: Inhibition of proliferation of MDA-361 cells; assay type: cell-based; conditions: MDA361, NE = no effect at highest concentration of drug tested, read-out: prolif: IC50 for inhibition of proliferation, MDA-361
Experimental: as §1, §2

[5] = system: LNCaP cells; test: Inhibition of proliferation of LNCaP cells; assay type: cell-based; conditions: Homo sapiens, NE = no effect at highest concentration of drug tested, read-out: prolif: IC50 for inhibition of proliferation, LNCaP
Experimental: as §1, §2

[6] = system: MDA-231 cells; test: Inhibition of proliferation of MDA-231 cells; assay type: cell-based; conditions: Homo sapiens, MDA-MB-231, NE = no effect at highest concentration of drug tested, read-out: prolif: IC50 for inhibition of proliferation, MDA-231
[7] = system: Jurkat cells; test: Inhibition of calcium entry into Jurkat cells (indo-1 fluorescence); assay type: cell-based, human
Experimental: as §3, with “8100C” left out, “([…].,” for “(Densmore, J. J., Haverstick, D. M.,”, “271:[…].,” for “271:C1494-C1503; Haverstick, D. M., Densmore, J. J.,”

[8] = system: MDA-361 cells; test: Inhibition of calcium entry into MDA-361 cells; assay type: cell-based; conditions: MDA361, NE = no effect at highest concentration of drug tested, read-out: Ca2+: IC50 for inhibition of calcium entry, MDA-361
Experimental: as §3

[9] = system: PC3 cells; test: Inhibition of proliferation of PC3 cells; assay type: cell-based, human; conditions: Homo sapiens, PC-3; PC3; NE = no effect at highest concentration of drug tested; read-out: prolif: IC50 for inhibition of proliferation, PC3
Experimental: as §1, §2

[10] = system: LNCaP cells; test: Inhibition of calcium entry into LNCaP cells; assay type: cell-based; conditions: Homo sapiens, NE = no effect at highest concentration of drug tested, read-out: Ca2+: IC50 for inhibition of calcium entry, LNCaP
Experimental: as §3

[11] = system: MDA-435 cells; test: Inhibition of calcium entry into MDA-435 cells; assay type: cell-based; conditions: MDA435, NE = no effect at highest concentration of drug tested, read-out: Ca2+: IC50 for inhibition of calcium entry, MDA-435
Experimental: as §3

[12] = Homo sapiens, Jurkat, NE = no effect at highest concentration of drug tested, read-out: prolif: IC50 for inhibition of proliferation, Jurkat
[13] = Homo sapiens, Jurkat, NE = no effect at highest concentration of drug tested, read-out: Ca2+: IC50 for inhibition of calcium entry, Jurkat
[14] = Homo sapiens, Jurkat cell line, Tables 1 and 2, unit inferred, read-out: IC50 for inhibition of proliferation
[15] = Homo sapiens, Jurkat cell line, Tables 1 and 2, unit inferred, read-out: IC50 for inhibition of Ca^2+ entry
[16] = Jurkat cell line, Tables 1 and 2, unit inferred, read-out: IC50 for inhibition of proliferation
[17] = Jurkat cell line, Tables 1 and 2, unit inferred, read-out: IC50 for inhibition of Ca^2+ entry

IC50 [2, 12]: 5.4 µM | IC50 [3]: 20 µM | IC50 [5]: 3.3 µM | IC50 [7, 13]: 3.3 µM | IC50 [8]: 10 µM | IC50 [9]: 14 µM
Compound: COc1ccc(CNCc2ccccc2COC(c2ccccc2)c2ccc(Cl)cc2)cc1 (stereo not shown) [Compound 3.11]
IC50 [1]: 22 µM | IC50 [4]: 8.5 µM | IC50 [6]: 11.6 µM

IC50 [2, 14]: 10 µM | IC50 [7, 15]: 5 µM
Compound: Cc1cccc(C)c1NC(=O)CN1CCN(CCCC(c2ccc(F)cc2)c2ccc(F)cc2)CC1 [Lidoflazine]

IC50 [2, 14]: > 100 µM | IC50 [7, 15]: > 100 µM
Compound: O=c1[nH]c2ccccc2n1C1CCN(CCCC(c2ccc(F)cc2)c2ccc(F)cc2)CC1 [Pimozide]

IC50 [2, 14]: 100 µM | IC50 [7, 15]: 10 µM
Compound: COC(=O)C1=C(C)NC(C)=C(C(=O)OC(C)C)C1c1cccc2nonc12 (stereo not shown) [Isradipine]

IC50 [2, 16]: 30 µM | IC50 [7, 17]: 10 µM
Compound: CC(Cc1ccc(O)c(O)c1)C(C)Cc1ccc(O)c(O)c1 (stereo not shown) [NDGA, Nordihydroguaiaretic acid]

IC50 [10]: 10 µM | IC50 [2, 12]: 4 µM | IC50 [3]: 10 µM | IC50 [5]: 3 µM | IC50 [11]: 10 µM | IC50 [7, 13]: 10 µM | IC50 [9]: 10 µM
Compound: COc1ccc(CCNCCCCC(c2ccccc2)c2ccc(Cl)cc2)cc1 (stereo not shown) [Compound 3.19]
IC50 [1]: 11 µM | IC50 [6]: 6 µM

IC50 [2, 14]: 30 µM | IC50 [7, 15]: 30 µM
Compound: CCC(=O)c1ccc2c(c1)N(CC(C)N(C)C)c1ccccc1S2 (stereo not shown) [Propiomazine]

Compound: Prenylamine lactate
IC50 [2, 16]: 10 µM | IC50 [7, 17]: 10 µM

Compound: C[C@H](CCC(=O)O)C[C@H](C)C[C@H](C)C(=O)/C=C(\O)[C@H](C)C[C@H](C)C/C=C/[C@@H](C)[C@@H](O)[C@@H](C)[C@@H](O)C[C@@H]1CC[C@@](C)([C@H]2CC[C@@](C)([C@@H](C)O)O2)O1 [ionomycin]
effect on proliferation of ionomycin alone ([2]; 30 nM ionomycin alone, Jurkat): no effect

IC50 [2, 14]: 10 µM | IC50 [7, 15]: 5 µM
Compound: CC(C)COCC(CN(Cc1ccccc1)c1ccccc1)N1CCCC1 (stereo not shown) [Bepridil]

IC50 [2, 14]: 30 µM | IC50 [7, 15]: 10 µM
Compound: COc1ccc2c(c1)N(C[C@H](C)CN(C)C)c1ccccc1S2 [Methotrimeprazine]

IC50 [2, 14]: 30 µM | IC50 [7, 15]: 30 µM
Compound: Cc1cccc(CN2CCN(C(c3ccccc3)c3ccc(Cl)cc3)CC2)c1 (stereo not shown) [Meclizine]

IC50 [2, 14]: 10 µM | IC50 [7, 15]: 5 µM
Compound: C1CCC(C(CC2CCCCN2)C2CCCCC2)CC1 (stereo not shown) [Perhexiline]

IC50 [2, 14]: 100 µM | IC50 [7, 15]: 50 µM
Compound: O=C(O)c1cccnc1Nc1cccc(C(F)(F)F)c1 [Niflumic acid]

IC50 [2, 16]: > 100 µM | IC50 [7, 17]: > 100 µM
Compound: COCCOC(=O)C1=C(C)NC(C)=C(C(=O)OC(C)C)C1c1cccc([N+](=O)[O-])c1 (stereo not shown) [Nimpodipine]

Reference: US20090234019A1, “T Type Calcium Channel Inhibitors” (priority 2004, published 2009)
